Experimental data reported in the kinase profiling compilation of Christmann-Franck et al. (2016).

Key:
Assay in all cases: radiometric filter-binding kinase assay
[1] = biological target: IGF1R (human) (UniProt P08069)
[2] = biological target: HIPK3 (human) (UniProt Q9H422)
[3] = biological target: STK11 CAB39 STRADA (human) (UniProt Q9Y376+Q7RTN6+Q15831)
[4] = biological target: MAP3K7 TAB1 (human) (UniProt Q15750+O43318)
[5] = biological target: FGFR1 (human) (UniProt P11362)
[6] = biological target: GSK3B (human) (UniProt P49841)
[7] = biological target: FLT1 (human) (UniProt P17948)
[8] = biological target: NTRK1 (human) (UniProt P04629)
[9] = biological target: MAP3K1 (human) (UniProt Q13233); details: compound 100.0 µM
[10] = biological target: BRSK1 (human) (UniProt Q8TDC3)
[11] = biological target: MAPK15 (human) (UniProt Q8TD08)
[12] = biological target: EPHA2 (human) (UniProt P29317)
[13] = biological target: SRC (human) (UniProt P12931)
[14] = biological target: PRKCZ (human) (UniProt Q05513)
[15] = biological target: CSK (human) (UniProt P41240)
[16] = biological target: CAMKK2 (human) (UniProt Q96RR4)
[17] = biological target: RPS6KA3 KD1 KD2 (human) (UniProt P51812)
[18] = biological target: RIPK2 (human) (UniProt O43353)
[19] = biological target: DYRK3 (human) (UniProt O43781)
[20] = biological target: MINK1 (human) (UniProt Q8N4C8)
[21] = system: ROCK2 (rat); details: accession and sequence are those of the human protein
[22] = system: LCK (mouse); details: accession and sequence are those of the human protein
[23] = biological target: JAK2 JH1 JH2 (human) (UniProt O60674)
[24] = biological target: MAPKAPK5 (human) (UniProt Q8IW41)
[25] = biological target: MARK1 (human) (UniProt Q9P0L2)
[26] = system: AKT2 (human), P31751 [S474D]
[27] = biological target: MAPK14 (human) (UniProt Q16539)
[28] = biological target: MAPK11 (human) (UniProt Q15759)
[29] = biological target: INSR (human) (UniProt P06213)
[30] = biological target: MELK (human) (UniProt Q14680)
[31] = biological target: HIPK1 (human) (UniProt Q86Z02)
[32] = biological target: TAOK1 (human) (UniProt Q7L7X3)
[33] = biological target: CSNK1D (human) (UniProt P48730)
[34] = biological target: CLK2 (human) (UniProt P49760)
[35] = biological target: IRAK4 (human) (UniProt Q9NWZ3)

Chain of RPS6KA3 KD1 KD2 (human) (P51812 whole entry, looked up): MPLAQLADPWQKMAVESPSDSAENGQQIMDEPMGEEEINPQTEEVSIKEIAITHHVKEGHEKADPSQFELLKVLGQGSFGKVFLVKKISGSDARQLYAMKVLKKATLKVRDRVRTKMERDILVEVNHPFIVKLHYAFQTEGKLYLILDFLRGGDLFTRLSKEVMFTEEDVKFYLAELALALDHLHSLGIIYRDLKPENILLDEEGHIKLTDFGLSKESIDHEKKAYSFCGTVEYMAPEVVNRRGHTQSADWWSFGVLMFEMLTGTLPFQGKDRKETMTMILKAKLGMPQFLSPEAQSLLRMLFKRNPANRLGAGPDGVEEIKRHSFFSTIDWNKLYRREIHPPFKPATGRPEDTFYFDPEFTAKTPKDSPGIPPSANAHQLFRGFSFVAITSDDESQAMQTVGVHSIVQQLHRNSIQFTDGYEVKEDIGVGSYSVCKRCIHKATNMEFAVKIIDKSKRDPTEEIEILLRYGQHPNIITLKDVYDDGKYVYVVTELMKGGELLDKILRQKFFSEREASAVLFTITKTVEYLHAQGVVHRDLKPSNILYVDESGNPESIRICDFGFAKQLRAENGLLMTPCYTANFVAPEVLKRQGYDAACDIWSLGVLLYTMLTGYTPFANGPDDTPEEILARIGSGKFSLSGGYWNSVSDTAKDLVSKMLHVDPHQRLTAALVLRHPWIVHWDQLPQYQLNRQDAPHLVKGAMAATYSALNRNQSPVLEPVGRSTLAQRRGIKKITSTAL
Chain of PRKCZ (human) (Q05513 whole entry, looked up): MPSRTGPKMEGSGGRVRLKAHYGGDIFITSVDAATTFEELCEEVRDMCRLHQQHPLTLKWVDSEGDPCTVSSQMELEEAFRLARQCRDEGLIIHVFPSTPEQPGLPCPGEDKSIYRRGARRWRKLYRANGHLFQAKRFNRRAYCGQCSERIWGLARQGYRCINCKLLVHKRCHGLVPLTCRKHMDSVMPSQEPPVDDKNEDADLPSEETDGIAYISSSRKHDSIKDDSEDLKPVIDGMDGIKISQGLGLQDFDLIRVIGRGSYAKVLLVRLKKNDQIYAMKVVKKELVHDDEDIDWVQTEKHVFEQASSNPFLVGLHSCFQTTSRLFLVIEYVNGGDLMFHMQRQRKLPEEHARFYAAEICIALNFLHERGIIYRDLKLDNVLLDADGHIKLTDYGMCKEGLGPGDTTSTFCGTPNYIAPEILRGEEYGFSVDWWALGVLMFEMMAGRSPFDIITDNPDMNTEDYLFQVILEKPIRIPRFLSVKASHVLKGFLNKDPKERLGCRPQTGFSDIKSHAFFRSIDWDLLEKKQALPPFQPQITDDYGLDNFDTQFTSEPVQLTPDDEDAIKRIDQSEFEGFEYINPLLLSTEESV
Chain of MAPK14 (human) (Q16539 whole entry, looked up): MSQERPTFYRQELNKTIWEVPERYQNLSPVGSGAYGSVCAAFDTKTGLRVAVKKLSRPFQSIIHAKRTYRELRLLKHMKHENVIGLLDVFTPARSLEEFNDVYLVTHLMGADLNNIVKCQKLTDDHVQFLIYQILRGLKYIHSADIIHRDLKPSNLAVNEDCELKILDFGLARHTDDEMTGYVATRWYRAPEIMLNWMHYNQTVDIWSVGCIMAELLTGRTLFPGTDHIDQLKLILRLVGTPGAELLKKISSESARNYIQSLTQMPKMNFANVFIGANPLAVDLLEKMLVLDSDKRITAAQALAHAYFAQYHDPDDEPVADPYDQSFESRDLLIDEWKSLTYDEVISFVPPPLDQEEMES
Chain of MAPKAPK5 (human) (Q8IW41 whole entry, looked up): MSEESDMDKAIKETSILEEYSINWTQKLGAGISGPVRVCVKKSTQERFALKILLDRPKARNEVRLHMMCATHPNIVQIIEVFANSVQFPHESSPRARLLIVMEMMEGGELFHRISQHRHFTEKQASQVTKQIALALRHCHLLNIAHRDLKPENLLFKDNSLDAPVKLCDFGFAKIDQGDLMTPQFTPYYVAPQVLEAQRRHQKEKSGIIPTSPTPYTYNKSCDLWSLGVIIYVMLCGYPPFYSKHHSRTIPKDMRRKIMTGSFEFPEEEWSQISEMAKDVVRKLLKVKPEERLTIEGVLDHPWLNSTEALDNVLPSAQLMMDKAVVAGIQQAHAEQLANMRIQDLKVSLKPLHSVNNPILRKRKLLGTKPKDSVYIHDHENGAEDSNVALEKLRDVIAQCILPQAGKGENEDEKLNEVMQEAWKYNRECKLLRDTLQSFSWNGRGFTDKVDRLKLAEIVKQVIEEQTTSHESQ
Chain of FGFR1 (human) (P11362 whole entry, looked up): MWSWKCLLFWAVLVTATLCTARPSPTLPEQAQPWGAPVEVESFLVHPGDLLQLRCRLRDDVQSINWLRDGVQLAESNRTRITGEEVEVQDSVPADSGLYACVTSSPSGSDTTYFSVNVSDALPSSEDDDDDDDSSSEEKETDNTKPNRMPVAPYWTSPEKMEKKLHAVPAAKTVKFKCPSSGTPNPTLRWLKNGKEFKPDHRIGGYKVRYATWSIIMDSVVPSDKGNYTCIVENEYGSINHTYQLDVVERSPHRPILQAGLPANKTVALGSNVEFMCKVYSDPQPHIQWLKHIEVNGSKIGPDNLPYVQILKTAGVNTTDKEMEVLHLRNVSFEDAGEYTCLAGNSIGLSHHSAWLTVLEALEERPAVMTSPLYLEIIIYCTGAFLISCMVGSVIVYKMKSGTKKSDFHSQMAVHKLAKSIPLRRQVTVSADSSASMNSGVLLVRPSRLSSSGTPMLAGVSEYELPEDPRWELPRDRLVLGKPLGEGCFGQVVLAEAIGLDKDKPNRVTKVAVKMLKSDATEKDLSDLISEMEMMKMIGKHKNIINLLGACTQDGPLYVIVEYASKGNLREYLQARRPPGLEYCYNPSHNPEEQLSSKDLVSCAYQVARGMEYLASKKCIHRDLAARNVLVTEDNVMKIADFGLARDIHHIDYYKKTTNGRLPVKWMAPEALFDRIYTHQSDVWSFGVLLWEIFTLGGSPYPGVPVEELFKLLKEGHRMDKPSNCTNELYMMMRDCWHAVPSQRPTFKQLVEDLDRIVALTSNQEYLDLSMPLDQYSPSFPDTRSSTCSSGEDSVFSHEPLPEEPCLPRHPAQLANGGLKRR
Chain of MAPK11 (human) (Q15759 whole entry, looked up): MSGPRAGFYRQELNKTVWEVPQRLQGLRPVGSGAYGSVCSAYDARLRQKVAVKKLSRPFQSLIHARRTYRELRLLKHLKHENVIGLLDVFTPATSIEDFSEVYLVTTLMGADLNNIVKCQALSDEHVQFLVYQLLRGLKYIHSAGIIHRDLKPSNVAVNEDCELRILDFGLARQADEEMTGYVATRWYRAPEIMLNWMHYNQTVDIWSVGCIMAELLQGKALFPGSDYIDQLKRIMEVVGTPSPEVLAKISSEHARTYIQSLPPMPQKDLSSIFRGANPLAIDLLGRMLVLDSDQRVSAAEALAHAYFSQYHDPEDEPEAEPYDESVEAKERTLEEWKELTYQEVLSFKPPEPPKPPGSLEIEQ
Chain of CSK (human) (P41240 whole entry, looked up): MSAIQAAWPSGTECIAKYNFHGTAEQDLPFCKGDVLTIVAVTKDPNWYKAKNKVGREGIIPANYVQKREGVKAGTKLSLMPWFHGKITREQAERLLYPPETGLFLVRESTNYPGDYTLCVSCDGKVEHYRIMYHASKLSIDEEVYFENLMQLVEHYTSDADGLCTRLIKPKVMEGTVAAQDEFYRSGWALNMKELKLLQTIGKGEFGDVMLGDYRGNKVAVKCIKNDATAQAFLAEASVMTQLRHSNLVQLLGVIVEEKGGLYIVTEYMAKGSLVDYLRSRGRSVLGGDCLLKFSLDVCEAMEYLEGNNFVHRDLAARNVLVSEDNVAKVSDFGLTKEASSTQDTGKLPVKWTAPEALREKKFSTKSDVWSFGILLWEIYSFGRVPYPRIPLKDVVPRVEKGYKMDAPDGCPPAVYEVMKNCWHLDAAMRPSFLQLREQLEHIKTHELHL
Chain of DYRK3 (human) (O43781 whole entry, looked up): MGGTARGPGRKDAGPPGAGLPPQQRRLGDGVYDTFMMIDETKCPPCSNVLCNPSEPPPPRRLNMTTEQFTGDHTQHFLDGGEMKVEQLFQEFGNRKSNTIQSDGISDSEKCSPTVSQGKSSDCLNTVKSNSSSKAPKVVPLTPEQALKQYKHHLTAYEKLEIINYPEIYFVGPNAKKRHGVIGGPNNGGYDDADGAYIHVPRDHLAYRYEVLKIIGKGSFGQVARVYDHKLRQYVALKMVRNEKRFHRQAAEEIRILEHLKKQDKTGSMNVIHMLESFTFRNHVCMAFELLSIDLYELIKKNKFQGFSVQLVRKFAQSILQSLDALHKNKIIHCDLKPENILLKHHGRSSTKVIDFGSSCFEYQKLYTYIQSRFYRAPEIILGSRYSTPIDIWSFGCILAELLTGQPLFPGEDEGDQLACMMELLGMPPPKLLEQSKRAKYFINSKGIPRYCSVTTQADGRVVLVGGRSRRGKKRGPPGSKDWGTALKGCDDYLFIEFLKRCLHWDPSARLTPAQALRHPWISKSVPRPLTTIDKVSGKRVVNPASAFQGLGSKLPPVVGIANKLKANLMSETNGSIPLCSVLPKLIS
Chain of SRC (human) (P12931 whole entry, looked up): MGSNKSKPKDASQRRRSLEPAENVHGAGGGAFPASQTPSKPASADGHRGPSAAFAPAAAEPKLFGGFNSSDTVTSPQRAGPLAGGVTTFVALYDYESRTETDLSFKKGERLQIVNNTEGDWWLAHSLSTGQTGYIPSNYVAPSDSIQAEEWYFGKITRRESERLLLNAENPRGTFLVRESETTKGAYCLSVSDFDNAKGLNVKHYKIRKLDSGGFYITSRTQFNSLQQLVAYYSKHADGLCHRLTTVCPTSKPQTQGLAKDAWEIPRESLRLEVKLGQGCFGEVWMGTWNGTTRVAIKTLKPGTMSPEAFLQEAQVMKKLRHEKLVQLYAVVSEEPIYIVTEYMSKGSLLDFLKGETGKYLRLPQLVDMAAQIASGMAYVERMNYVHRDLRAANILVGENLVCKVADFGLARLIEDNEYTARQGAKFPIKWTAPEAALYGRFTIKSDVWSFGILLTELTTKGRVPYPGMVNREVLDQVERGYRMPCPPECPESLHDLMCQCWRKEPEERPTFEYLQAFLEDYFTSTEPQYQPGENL

For `Cc1cc(N=Nc2cc(S(=O)(=O)O)c(C)cc2C)c(N)cc1O`, the residual activity ([1]; compound 100.0 µM) was 109%, the residual activity ([2]; compound 100.0 µM) was 74% and the residual activity ([3]; compound 100.0 µM) was 126%. For the same compound, the residual activity ([4]; compound 100.0 µM) was 31%, the residual activity ([5]; compound 100.0 µM) was 59% and the residual activity ([6]; compound 100.0 µM) was 31%. For the same compound, the residual activity ([7]; compound 100.0 µM) was 62%, the residual activity ([8]; compound 100.0 µM) was 65% and the residual activity [9] was 88%. For the same compound, the residual activity ([10]; compound 100.0 µM) was 76%, the residual activity ([11]; compound 100.0 µM) was 65% and the residual activity ([12]; compound 100.0 µM) was 89%. The residual activity ([13]; compound 100.0 µM) was 40%, the residual activity ([14]; compound 100.0 µM) was 97% and the residual activity ([15]; compound 100.0 µM) was 132%. The residual activity ([16]; compound 100.0 µM) was 99%, the residual activity ([17]; compound 100.0 µM) was 80% and the residual activity ([18]; compound 100.0 µM) was 46%. For the same compound, the residual activity ([19]; compound 100.0 µM) was 65%, the residual activity ([20]; compound 100.0 µM) was 62% and the residual activity ([21]; compound 100.0 µM) was 105%. For the same compound, the residual activity ([22]; compound 100.0 µM) was 112%, the residual activity ([23]; compound 100.0 µM) was 71% and the residual activity ([24]; compound 100.0 µM) was 70%. For the same compound, the residual activity ([25]; compound 100.0 µM) was 99%, the residual activity ([26]; compound 100.0 µM) was 37% and the residual activity ([27]; compound 100.0 µM) was 58%. It also gave a residual activity ([28]; compound 100.0 µM) of 58%, a residual activity ([29]; compound 100.0 µM) of 141% and a residual activity ([30]; compound 100.0 µM) of 87%. The residual activity ([31]; compound 100.0 µM) was 94% and the residual activity ([32]; compound 100.0 µM) was 109%.

`NC(=O)c1c(NC(=O)C2CC2)sc2c1CCCC2` was tested, and the residual activity ([33]; compound 1.0 µM) was 96%, the residual activity ([33]; compound 10.0 µM) was 81% and the residual activity ([1]; compound 1.0 µM) was 86%. It also gave a residual activity ([1]; compound 10.0 µM) of 79%, a residual activity ([2]; compound 1.0 µM) of 89% and a residual activity ([2]; compound 10.0 µM) of 102%. For the same compound, the residual activity ([3]; compound 1.0 µM) was 91%, the residual activity ([3]; compound 10.0 µM) was 81% and the residual activity ([4]; compound 1.0 µM) was 92%. For the same compound, the residual activity ([4]; compound 10.0 µM) was 53%, the residual activity ([5]; compound 1.0 µM) was 105% and the residual activity ([5]; compound 10.0 µM) was 46%. The residual activity ([6]; compound 1.0 µM) was 90%, the residual activity ([6]; compound 10.0 µM) was 42% and the residual activity ([7]; compound 1.0 µM) was 45%. The residual activity ([7]; compound 10.0 µM) was 9%, the residual activity ([8]; compound 1.0 µM) was 90% and the residual activity ([8]; compound 10.0 µM) was 30%. It also gave a residual activity ([10]; compound 1.0 µM) of 97%, a residual activity ([10]; compound 10.0 µM) of 90% and a residual activity ([11]; compound 1.0 µM) of 106%. The residual activity ([11]; compound 10.0 µM) was 67%, the residual activity ([12]; compound 1.0 µM) was 87% and the residual activity ([12]; compound 10.0 µM) was 52%. For the same compound, the residual activity ([13]; compound 1.0 µM) was 102%, the residual activity ([13]; compound 10.0 µM) was 87% and the residual activity ([14]; compound 1.0 µM) was 104%. It also gave a residual activity ([14]; compound 10.0 µM) of 104%, a residual activity ([15]; compound 1.0 µM) of 96% and a residual activity ([15]; compound 10.0 µM) of 88%. The residual activity ([16]; compound 1.0 µM) was 106%, the residual activity ([16]; compound 10.0 µM) was 48% and the residual activity ([17]; compound 1.0 µM) was 107%. It also gave a residual activity ([17]; compound 10.0 µM) of 89%, a residual activity ([18]; compound 1.0 µM) of 86% and a residual activity ([18]; compound 10.0 µM) of 36%. It also gave a residual activity ([19]; compound 1.0 µM) of 111%, a residual activity ([19]; compound 10.0 µM) of 109% and a residual activity ([20]; compound 1.0 µM) of 80%. It also gave a residual activity ([20]; compound 10.0 µM) of 37%, a residual activity ([21]; compound 1.0 µM) of 95% and a residual activity ([21]; compound 10.0 µM) of 91%. The residual activity ([22]; compound 1.0 µM) was 98%, the residual activity ([22]; compound 10.0 µM) was 77% and the residual activity ([23]; compound 1.0 µM) was 104%. For the same compound, the residual activity ([23]; compound 10.0 µM) was 60%, the residual activity ([34]; compound 1.0 µM) was 89% and the residual activity ([34]; compound 10.0 µM) was 49%. For the same compound, the residual activity ([24]; compound 1.0 µM) was 96%, the residual activity ([24]; compound 10.0 µM) was 62% and the residual activity ([25]; compound 1.0 µM) was 93%. For the same compound, the residual activity ([25]; compound 10.0 µM) was 67%, the residual activity ([26]; compound 1.0 µM) was 100% and the residual activity ([26]; compound 10.0 µM) was 96%. For the same compound, the residual activity ([27]; compound 1.0 µM) was 100%, the residual activity ([27]; compound 10.0 µM) was 101% and the residual activity ([28]; compound 1.0 µM) was 99%. The residual activity ([28]; compound 10.0 µM) was 98%, the residual activity ([29]; compound 1.0 µM) was 101% and the residual activity ([29]; compound 10.0 µM) was 97%. For the same compound, the residual activity ([30]; compound 1.0 µM) was 71%, the residual activity ([30]; compound 10.0 µM) was 44% and the residual activity ([35]; compound 1.0 µM) was 68%. It also gave a residual activity ([35]; compound 10.0 µM) of 28%, a residual activity ([31]; compound 1.0 µM) of 100% and a residual activity ([31]; compound 10.0 µM) of 87%. It also gave a residual activity ([32]; compound 1.0 µM) of 87% and a residual activity ([32]; compound 10.0 µM) of 69%.

With `Cc1cc(NC(=O)c2cccc(NC(=O)/C=C/CN(C)C)c2)ccc1Nc1nccc(-c2cccnc2)n1` the residual activity ([33]; compound 0.1 µM) was 89%, the residual activity ([33]; compound 1.0 µM) was 57% and the residual activity ([1]; compound 1.0 µM) was 87%. The residual activity ([2]; compound 0.1 µM) was 97%, the residual activity ([2]; compound 1.0 µM) was 90% and the residual activity ([3]; compound 0.1 µM) was 106%. For the same compound, the residual activity ([3]; compound 1.0 µM) was 95%, the residual activity ([4]; compound 0.1 µM) was 90% and the residual activity ([4]; compound 1.0 µM) was 66%. For the same compound, the residual activity ([5]; compound 0.1 µM) was 103%, the residual activity ([5]; compound 1.0 µM) was 82% and the residual activity ([6]; compound 0.1 µM) was 114%. It also gave a residual activity ([6]; compound 1.0 µM) of 90%, a residual activity ([7]; compound 0.1 µM) of 100% and a residual activity ([7]; compound 1.0 µM) of 53%. For the same compound, the residual activity ([8]; compound 1.0 µM) was 92%, the residual activity ([10]; compound 0.1 µM) was 99% and the residual activity ([10]; compound 1.0 µM) was 87%. For the same compound, the residual activity ([11]; compound 0.1 µM) was 90%, the residual activity ([11]; compound 1.0 µM) was 64% and the residual activity ([12]; compound 0.1 µM) was 118%. For the same compound, the residual activity ([12]; compound 1.0 µM) was 111%, the residual activity ([13]; compound 0.1 µM) was 85% and the residual activity ([13]; compound 1.0 µM) was 50%. The residual activity ([14]; compound 0.1 µM) was 116%, the residual activity ([14]; compound 1.0 µM) was 89% and the residual activity ([15]; compound 0.1 µM) was 110%. It also gave a residual activity ([15]; compound 1.0 µM) of 93%, a residual activity ([16]; compound 1.0 µM) of 63% and a residual activity ([17]; compound 0.1 µM) of 82%. For the same compound, the residual activity ([17]; compound 1.0 µM) was 76%, the residual activity ([18]; compound 0.1 µM) was 82% and the residual activity ([18]; compound 1.0 µM) was 49%. It also gave a residual activity ([19]; compound 0.1 µM) of 94%, a residual activity ([19]; compound 1.0 µM) of 80% and a residual activity ([20]; compound 0.1 µM) of 94%. It also gave a residual activity ([20]; compound 1.0 µM) of 78%, a residual activity ([21]; compound 0.1 µM) of 86% and a residual activity ([21]; compound 1.0 µM) of 80%. It also gave a residual activity ([22]; compound 0.1 µM) of 96%, a residual activity ([22]; compound 1.0 µM) of 92% and a residual activity ([23]; compound 0.1 µM) of 100%. It also gave a residual activity ([23]; compound 1.0 µM) of 94%, a residual activity ([34]; compound 0.1 µM) of 102% and a residual activity ([34]; compound 1.0 µM) of 88%. It also gave a residual activity ([24]; compound 0.1 µM) of 92%, a residual activity ([24]; compound 1.0 µM) of 82% and a residual activity ([25]; compound 0.1 µM) of 114%. It also gave a residual activity ([26]; compound 0.1 µM) of 99%, a residual activity ([26]; compound 1.0 µM) of 91% and a residual activity ([27]; compound 0.1 µM) of 105%. The residual activity ([27]; compound 1.0 µM) was 110%, the residual activity ([29]; compound 0.1 µM) was 102% and the residual activity ([29]; compound 1.0 µM) was 80%. It also gave a residual activity ([30]; compound 0.1 µM) of 91%, a residual activity ([30]; compound 1.0 µM) of 63% and a residual activity ([35]; compound 1.0 µM) of 86%. The residual activity ([31]; compound 0.1 µM) was 103%, the residual activity ([31]; compound 1.0 µM) was 87% and the residual activity ([32]; compound 0.1 µM) was 124%. For the same compound, the residual activity ([32]; compound 1.0 µM) was 97%.
